Key:
GalP [1] = target: T1, GalP (Escherichia coli, UniProt P0AEP1); test: CPM thermostability shift assay; format: binding; conditions: 50 mM compound, dodecyl-maltoside
T1 construct: full length, C-terminal His6; plasmid pGP1 in E. coli JM1100, purified in dodecyl-maltoside

[2] = target: T2, mitochondrial ADP/ATP carrier (AAC) (Thermothelomyces thermophilus, UniProt G2QNH0); test: CPM thermostability shift assay; format: binding; conditions: 2.5 mM compound, pH 8.0, 100 mM NaCl, dodecyl-maltoside, tetraoleoyl cardiolipin
T2 construct: gene MYCTH_2316753; N-terminal His8 tag, TSED linker and Factor Xa site; expressed in S. cerevisiae WB.12 mitochondria, purified in dodecyl-maltoside
T2 sequence (G2QNH0 whole entry): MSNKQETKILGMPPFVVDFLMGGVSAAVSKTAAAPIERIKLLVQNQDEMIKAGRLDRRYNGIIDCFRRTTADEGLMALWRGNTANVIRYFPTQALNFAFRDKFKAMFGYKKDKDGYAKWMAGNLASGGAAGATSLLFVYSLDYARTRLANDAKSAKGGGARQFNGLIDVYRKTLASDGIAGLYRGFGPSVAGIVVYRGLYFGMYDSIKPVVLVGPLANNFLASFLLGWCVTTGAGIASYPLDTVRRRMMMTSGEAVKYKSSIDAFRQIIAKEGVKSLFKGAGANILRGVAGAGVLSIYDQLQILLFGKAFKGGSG
Description: CPM thermostability shift assay on mitochondrial ADP/ATP carrier (AAC) | In the presence of ATP, ADP, and dADP the population was stabilized

Mhp1 = target: T3, Mhp1 (Microbacterium maritypicum, UniProt D6R8X8); test: CPM thermostability shift assay; format: binding; conditions: 2 mM compound, 140 mM NaCl, pH 8.0, dodecyl-maltoside
T3 construct: gene hyuP; full length, C-terminal His6; plasmid pTTQ18, E. coli BL21(DE3), purified in dodecyl-maltoside
T3 sequence (D6R8X8 whole entry): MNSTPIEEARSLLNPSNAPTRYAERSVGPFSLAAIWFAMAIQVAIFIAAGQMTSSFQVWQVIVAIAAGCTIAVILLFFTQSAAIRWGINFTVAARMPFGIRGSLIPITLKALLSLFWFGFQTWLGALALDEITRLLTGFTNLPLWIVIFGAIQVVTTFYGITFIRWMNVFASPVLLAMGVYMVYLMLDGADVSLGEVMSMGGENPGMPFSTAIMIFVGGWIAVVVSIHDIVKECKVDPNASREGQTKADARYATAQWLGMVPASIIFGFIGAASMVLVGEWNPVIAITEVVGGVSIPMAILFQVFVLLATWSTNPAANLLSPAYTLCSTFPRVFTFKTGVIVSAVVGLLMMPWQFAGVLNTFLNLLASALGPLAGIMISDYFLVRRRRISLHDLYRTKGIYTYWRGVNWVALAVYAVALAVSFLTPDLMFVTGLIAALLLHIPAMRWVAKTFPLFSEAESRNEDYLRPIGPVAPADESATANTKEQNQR

GalP [3] = target: T1, GalP; test: CPM thermostability shift assay; format: binding; conditions: 50 mM compound, dodecyl-maltoside; remark: listed apart in the source
[4] = target: T4, mitochondrial phosphate carrier of Tetrahymena thermophila (UniProt I7M3J0) (Tetrahymena thermophila, UniProt I7M3J0); test: CPM thermostability shift assay; format: binding; conditions: 2.5 mM compound, pH 6.0, 100 mM NaCl, tetraoleoyl cardiolipin
T4 construct: gene TTHERM_00535740; N-terminal His8 tag, TSED linker and Factor Xa site; expressed in S. cerevisiae W303-1B mitochondria, purified in lauryl maltose neopentyl glycol
T4 sequence (I7M3J0 entry or part of it): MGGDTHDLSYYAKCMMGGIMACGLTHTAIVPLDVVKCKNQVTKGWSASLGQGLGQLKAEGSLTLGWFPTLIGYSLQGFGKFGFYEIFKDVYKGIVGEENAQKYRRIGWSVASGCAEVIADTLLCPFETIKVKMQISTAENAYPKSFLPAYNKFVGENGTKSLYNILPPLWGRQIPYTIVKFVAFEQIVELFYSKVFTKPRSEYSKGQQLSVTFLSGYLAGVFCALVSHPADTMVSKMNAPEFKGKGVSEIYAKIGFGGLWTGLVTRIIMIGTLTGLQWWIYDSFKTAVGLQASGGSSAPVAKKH

[5] = target: T4, mitochondrial phosphate carrier of Tetrahymena thermophila; test: competition of […]-orthophosphate uptake in proteoliposomes; format: biochemical; conditions: 20 mM external glyoxylate, 20 μM [33P]-orthophosphate, pH 6.5, 20 mM internal compound

T1 sequence (P0AEP1 whole entry): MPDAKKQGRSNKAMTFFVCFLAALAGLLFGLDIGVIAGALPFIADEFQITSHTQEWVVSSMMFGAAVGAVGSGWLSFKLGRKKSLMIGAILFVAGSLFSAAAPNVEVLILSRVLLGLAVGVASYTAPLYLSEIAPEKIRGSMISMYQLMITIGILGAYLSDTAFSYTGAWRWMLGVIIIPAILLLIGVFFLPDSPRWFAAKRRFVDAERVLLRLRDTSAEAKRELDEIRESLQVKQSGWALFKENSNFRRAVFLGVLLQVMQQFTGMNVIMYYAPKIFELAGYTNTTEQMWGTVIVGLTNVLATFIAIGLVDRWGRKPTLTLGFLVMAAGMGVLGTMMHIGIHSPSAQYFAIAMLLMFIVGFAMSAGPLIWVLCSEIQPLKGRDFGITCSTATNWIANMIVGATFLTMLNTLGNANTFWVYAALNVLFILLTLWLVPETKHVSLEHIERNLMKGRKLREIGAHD

`OC[C@H]1OC(O)C[C@@H](O)[C@@H]1O` (stereo partly drawn) [2-deoxy-D-glucose] was tested, and the dTm (GalP [1]) was “to a lesser extent by D-talose, 2-deoxy-D-glucose, 6-deoxy-D-glucose”.

For `C[C@H]1OC(O)[C@H](O)[C@@H](O)[C@@H]1O` (stereo partly drawn) [6-deoxy-D-glucose], the dTm (GalP [1]) was “to a lesser extent by D-talose, 2-deoxy-D-glucose, 6-deoxy-D-glucose”.

For `Nc1ncnc2c1ncn2[C@@H]1O[C@H](COP(=O)(O)OP(=O)(O)O)[C@@H](O)[C@H]1O` [ADP], the dTm [2] was 6.0 ± 0.5 °C.

`Nc1ncnc2c1ncn2[C@@H]1O[C@H](COP(=O)(O)OP(=O)(O)OP(=O)(O)O)[C@@H](O)[C@H]1O` [ATP] showed a dTm [2] of 7.2 ± 0.2 °C.

With `O=C1NC(=O)C(C=CBr)N1` (stereo not drawn) [BVH, 5-bromovinylhydantoin] the dTm (Mhp1) was 11.9 ± 1.1 °C.

`OC[C@H]1OC(O)[C@H](O)[C@@H](O)[C@H]1O` (stereo partly drawn) [D-galactose] was tested, and the dTm (GalP [3]) was 2.1 ± 0.6 °C.

With `OC[C@H]1OC(O)[C@H](O)[C@@H](O)[C@@H]1O` (stereo partly drawn) [D-glucose] the dTm (GalP [3]) was 4.2 ± 0.5 °C.

With `OC[C@H]1OC(O)[C@@H](O)[C@@H](O)[C@H]1O` (stereo partly drawn) [D-talose] the dTm (GalP [1]) was “to a lesser extent by D-talose, 2-deoxy-D-glucose, 6-deoxy-D-glucose”.

`O=C1NC(=O)[C@H](Cc2ccccc2)N1` [L-BH, 5-benzyl-L-hydantoin] gave a dTm (Mhp1) of 13.6 ± 1.2 °C.

Compound `O=C1NC(=O)[C@H](Cc2ccc3ccccc3c2)N1` [L-NMH, 5-(2-naphthylmethyl)-L-hydantoin] has a dTm (Mhp1; inhibitor) of 15.6 ± 1.7 °C.

Work on `CC(=O)OP(=O)(O)O` [acetyl-phosphate] yielded a dTm [4] of 3.2 ± 0.5 °C.

With `Nc1ncnc2c1ncn2[C@H]1C[C@H](O)[C@@H](COP(=O)(O)OP(=O)(O)O)O1` [dADP] the dTm [2] was 1.8 ± 0.2 °C.

In the case of `O=CC(=O)O` [glyoxylate], the “inhibition of phosphate uptake” value [5] is reported as “in competition assays glyoxylate abolished uptake” and the dTm [4] is reported as 3.6 ± 0.8 °C.

In the case of `C=C(OP(=O)(O)O)C(=O)O` [phosphoenolpyruvate], the dTm [4] is reported as 2.3 ± 0.2 °C.

Reference: paper PMC6211832, “Screening of candidate substrates and coupling ions of transporters by thermostability shift assays” (eLife, 2018)
